This test concerns PKC. As to the kind of experiment: PKC BRET sensor, AT1R-mediated. The test is classed as cell-based, human. On the procedure: HEK293SL cells were seeded at a density of 7.5 × 10^5 cells per 100-mm dish and 24 h later, transiently transfected as such. For receptor internalization experiments, cells were transfected with 0.12 μg AT1R-RlucII, B2R-RlucII, or β2AR-RlucII and 0.48 μg of either rGFP-CAAX (to assess removal from the PM) or rGFP-FYVE (to assess accumulation in the endosomes). For β-arrestin recruitment assays, cells were transfected with 0.48 μg of receptor-YFP along with 0.12 μg of β-arrestin-RlucII. For β-arrestin/AP-2 binding experiments, cells were transfected with 1 μg Flag-AT1R, 1 μg β2-Adaptin-YFP, and 0.12 μg β-arrestin2-RlucII. […] For kinetics of β-arrestin recruitment or β-arrestin binding to receptor and AP-2 experiments, cells were serum starved for 30 min, pretreated with 21 (50 µM) or Barbadin (100 µM) for 30 min, stimulated with 100 nM AngII or 1 µM BK and BRET signals were monitored at indicated times using a Victor X Light plate reader (PerkinElmer). […] The BRET ratio was determined by calculating the ratio of the light emitted by YFP over the light emitted by the RlucII. […] For the kinetics of GTPase and PI3K/Akt activation, cells were serum starved, pretreated with 21 (50 µM) or Wortmannin (200 nM) for 30 min, stimulated with ligand (100 nM AngII or 100 ng/ml EGF) and BRET signals were monitored at indicated times. […]

Values joined by “and” are separate entries in the source; they are usually repeats but may differ in a detail not shown here. Identical values can stand only once.

With `CC(C)C(=O)N1CCN(c2ccc(NC(=O)c3cc4ccccc4o3)cc2Cl)CC1` [Compound 21], the “AT1R-mediated PKC activation” value (50 μM) is recorded as “did not inhibit AT1R-mediated PKC activation”. The “PKC BRET sensor signal (S_Fig.4b), single experiments” value (listed as Comp 21) was 0.07767 and 0.069 and 0.0815.

For the origin of these results see paper PMC8333425, “Discovery of a dual Ras and ARF6 inhibitor from a GPCR endocytosis screen” (Nature Communications, 2021).
